Legend:
Assay type in all cases: in vivo
[1] = system: barnyardgrass (Echinochloa crus-galli); experiment: Test A preemergence soil spray, visual injury rating 0-100; details: 10 days
Outline: (§1)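 Rating: visual, day 10, untreated plants as reference, 0 no effect to 100 full control. Plants were in loam-sand and were treated either preemergence via directed soil spray or postemergence at the one- to two-leaf stage.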

[2] = system: blackgrass (Alopecurus myosuroides); experiment: as above; details: 10 days
Outline: as §1

[3] = system: corn (Zea mays); experiment: as above; details: 10 days
Outline: as §1

[4] = system: green foxtail (Setaria viridis); experiment: as above; details: 10 days
Outline: as §1

[5] = system: kochia (Bassia scoparia); experiment: as above; details: 62 g ai/ha, 10 days, 0 = no effect, 100 = complete control
Outline: as §1

[6] = system: oat, wild (wild oat, Avena fatua); experiment: as above; details: 10 days
Outline: as §1

[7] = system: palmer (palmer amaranth, palmer pigweed, Amaranthus palmeri); experiment: as above; details: 10 days
Outline: as §1

[8] = system: ragweed (common ragweed, Ambrosia artemisiifolia); experiment: as above; details: 10 days
Outline: as §1

[9] = system: ryegrass, Italian (italian ryegrass, Lolium multiflorum); experiment: as above; details: 10 days
Outline: as §1

[10] = system: soybean (Glycine max); experiment: as above; details: 10 days
Outline: as §1

[11] = system: wheat (Triticum aestivum); experiment: as above; details: 10 days
Outline: as §1

[12] = system: barnyardgrass (Echinochloa crus-galli); experiment: Test A postemergence application, visual injury rating 0-100
Outline: as §1

[13] = system: blackgrass (Alopecurus myosuroides); experiment: as above
Outline: as §1

[14] = system: corn (Zea mays); experiment: as above
Outline: as §1

[15] = system: galium (catchweed bedstraw, Galium aparine); experiment: as above
Outline: as §1

[16] = system: green foxtail (Setaria viridis); experiment: as above
Outline: as §1

[17] = system: horseweed (Erigeron canadensis); experiment: as above
Outline: as §1

[18] = system: kochia (Bassia scoparia); experiment: as above
Outline: as §1

[19] = system: oat, wild (wild oat, Avena fatua); experiment: as above
Outline: as §1

[20] = system: palmer (palmer amaranth, palmer pigweed, Amaranthus palmeri); experiment: as above
Outline: as §1

[21] = system: ragweed (common ragweed, Ambrosia artemisiifolia); experiment: as above
Outline: as §1

[22] = system: ryegrass, Italian (italian ryegrass, Lolium multiflorum); experiment: as above
Outline: as §1

[23] = system: soybean (Glycine max); experiment: as above
Outline: as §1

[24] = system: wheat (Triticum aestivum); experiment: as above
Outline: as §1

[25] = system: barnyardgrass (Echinochloa crusgalli); experiment: Test B flooded paddy test, visual plant response rating 0-100; details: 250 g ai/ha, Flood, applied to paddy water, evaluated after 13 days
Outline: (§2)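 Visual evaluation after 13 days. Water-applied treatment, 3 cm flood depth held constant, plants at 2-leaf stage at treatment.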

[26] = system: ducksalad (Heteranthera limosa); experiment: as above; details: 250 g ai/ha, Flood, applied to paddy water, evaluated after 13 days
Outline: as §2

[27] = system: rice (Oryza sativa); experiment: as above; details: 250 g ai/ha, Flood, applied to paddy water, evaluated after 13 days
Outline: as §2

[28] = system: sedge, umbrella (small-flower umbrella sedge, Cyperus difformis); experiment: as above; details: 250 g ai/ha, Flood, applied to paddy water, evaluated after 13 days
Outline: as §2

[29] = 62 g ai/ha, 0 = no effect, 100 = complete control
[30] = 62 g ai/ha, postemergence, 10 days, 0 = no effect, 100 = complete control
[31] = Postemergence, 16 g ai/ha, greenhouse 10 days, 0 no effect, 100 complete control

Which results are given for `CC(C)COC(=O)C1=CCC(NC(=O)C2(C)CN(c3cc(Cl)cc(Cl)c3)C(=O)O2)C1` (stereo not drawn) [Compound 155]?
Barnyardgrass plant response rating ([1]; 16 g ai/ha, 0 to 100 scale): 0; Barnyardgrass plant response rating (0-100) [1, 29]: 10; Blackgrass plant response rating ([2]; 16 g ai/ha, 0 to 100 scale): 0; Blackgrass plant response rating (0-100) [2, 29]: 0; Corn plant response rating ([3]; 16 g ai/ha, 0 to 100 scale): 0; Corn plant response rating (0-100) [3, 29]: 0; Foxtail, Green plant response rating ([4]; 16 g ai/ha, 0 to 100 scale): 30; Foxtail, Green plant response rating (0-100) [4, 29]: 30; Kochia plant response rating (0-100) [5]: 20; Oat, Wild plant response rating ([6]; 16 g ai/ha, 0 to 100 scale): 0; Oat, Wild plant response rating (0-100) [6, 29]: 0; Pigweed, Palmer plant response rating ([7]; 16 g ai/ha, 0 to 100 scale): 0; Pigweed, Palmer plant response rating (0-100) [7, 29]: 0; Ragweed plant response rating ([8]; 16 g ai/ha, 0 to 100 scale): 0; Ragweed plant response rating (0-100) [8, 29]: 0; Ryegrass, Italian plant response rating ([9]; 16 g ai/ha, 0 to 100 scale): 0; Ryegrass, Italian plant response rating (0-100) [9, 29]: 0; Soybean plant response rating ([10]; 16 g ai/ha, 0 to 100 scale): 0; Soybean plant response rating (0-100) [10, 29]: 0; Wheat plant response rating ([11]; 16 g ai/ha, 0 to 100 scale): 0; Wheat plant response rating (0-100) [11, 29]: 10; Barnyardgrass plant response rating (0-100) [12, 30]: 10; Barnyardgrass plant response rating (0 to 100 scale) [12, 31]: 0; Blackgrass plant response rating (0-100) [13, 30]: 0; Blackgrass plant response rating (0 to 100 scale) [13, 31]: 0; Corn plant response rating (0-100) [14, 30]: 0; Corn plant response rating (0 to 100 scale) [14, 31]: 0; Galium plant response rating (0-100) [15, 30]: 70; Galium plant response rating (0 to 100 scale) [15, 31]: 0; Foxtail, Green plant response rating (0-100) [16, 30]: 20; Foxtail, Green plant response rating (0 to 100 scale) [16, 31]: 0; Horseweed plant response rating (0-100) [17, 30]: 0; Horseweed plant response rating (0 to 100 scale) [17, 31]: 0; Kochia plant response rating (0-100) [18, 30]: 40; Kochia plant response rating (0 to 100 scale) [18, 31]: 0; Oat, Wild plant response rating (0-100) [19, 30]: 0; Oat, Wild plant response rating (0 to 100 scale) [19, 31]: 0; Pigweed, Palmer plant response rating (0-100) [20, 30]: 0; Pigweed, Palmer plant response rating (0 to 100 scale) [20, 31]: 0; Ragweed plant response rating (0-100) [21, 30]: 30; Ragweed plant response rating (0 to 100 scale) [21, 31]: 0; Ryegrass, Italian plant response rating (0-100) [22, 30]: 0; Ryegrass, Italian plant response rating (0 to 100 scale) [22, 31]: 0; Soybean plant response rating (0-100) [23, 30]: 20; Soybean plant response rating (0 to 100 scale) [23, 31]: 0; Wheat plant response rating (0-100) [24, 30]: 0; Wheat plant response rating (0 to 100 scale) [24, 31]: 0; Plant response rating, Barnyardgrass (0 to 100 scale, 0 is no effect and 100 is complete control) [25]: 0; Plant response rating, Ducksalad (0 to 100 scale, 0 is no effect and 100 is complete control) [26]: 0; Plant response rating, Rice (0 to 100 scale, 0 is no effect and 100 is complete control) [27]: 0; Plant response rating, Sedge, Umbrella (0 to 100 scale, 0 is no effect and 100 is complete control) [28]: 0
